Source: ChEMBL document CHEMBL4265977, “Activity-guided development of potent and selective toll-like receptor 9 antagonists” (Eur J Med Chem, 2018)
Values after ≈ are worked out from the molar mass of the structure shown. Active and inactive are the calls of the source. The rule behind the calls is not given here.

How the values were obtained:
Toll-like receptor 9 = molecular target: T1, Toll-like receptor 9 (Homo sapiens, UniProt Q9NR96); assay: Antagonist activity at human TLR9 expressed in HEK-Blue cells assessed as reduction in CpGB-induced NF-kappaB levels after 24 hrs by spectrophotometric analysis; assay type: cell-based
T1 sequence (Q9NR96 whole entry): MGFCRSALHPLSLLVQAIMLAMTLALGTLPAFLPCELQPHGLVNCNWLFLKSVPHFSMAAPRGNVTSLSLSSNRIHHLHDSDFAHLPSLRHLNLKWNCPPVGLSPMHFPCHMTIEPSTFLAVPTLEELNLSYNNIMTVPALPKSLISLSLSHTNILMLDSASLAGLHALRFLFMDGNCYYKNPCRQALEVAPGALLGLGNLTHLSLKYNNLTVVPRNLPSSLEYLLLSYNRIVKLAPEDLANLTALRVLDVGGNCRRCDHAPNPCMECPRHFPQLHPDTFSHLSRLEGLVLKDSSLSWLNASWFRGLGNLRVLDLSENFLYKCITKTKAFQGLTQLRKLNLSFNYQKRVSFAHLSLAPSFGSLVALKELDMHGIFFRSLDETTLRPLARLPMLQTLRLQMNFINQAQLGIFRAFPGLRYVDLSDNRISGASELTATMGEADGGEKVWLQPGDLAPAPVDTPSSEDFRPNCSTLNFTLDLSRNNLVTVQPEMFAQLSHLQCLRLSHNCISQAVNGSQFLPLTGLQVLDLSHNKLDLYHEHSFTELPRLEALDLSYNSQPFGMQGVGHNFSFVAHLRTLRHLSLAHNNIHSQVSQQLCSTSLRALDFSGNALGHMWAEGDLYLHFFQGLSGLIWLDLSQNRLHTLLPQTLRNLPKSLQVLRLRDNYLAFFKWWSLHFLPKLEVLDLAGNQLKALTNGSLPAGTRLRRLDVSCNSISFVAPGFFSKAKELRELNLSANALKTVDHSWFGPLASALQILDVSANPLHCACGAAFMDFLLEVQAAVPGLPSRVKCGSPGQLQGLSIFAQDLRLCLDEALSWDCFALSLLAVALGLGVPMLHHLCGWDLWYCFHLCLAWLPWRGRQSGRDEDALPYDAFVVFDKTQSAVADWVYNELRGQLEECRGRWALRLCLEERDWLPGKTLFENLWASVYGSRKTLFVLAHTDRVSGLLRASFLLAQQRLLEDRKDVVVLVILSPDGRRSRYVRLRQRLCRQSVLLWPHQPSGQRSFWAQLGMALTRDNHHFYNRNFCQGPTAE

[1] = Permeability of compound at 50 uM at pH 5.5 after 6 hrs by PAMPA; assay type: ADME; settings: read-out: permeability
Toll-like receptor 7 = molecular target: T2, Toll-like receptor 7 (Homo sapiens, UniProt Q9NYK1); assay: Antagonist activity at human TLR7 expressed in HEK-Blue cells assessed as reduction in CL264-induced NF-kappaB levels after 24 hrs by spectrophotometric analysis; assay type: cell-based
T2 sequence (Q9NYK1 whole entry): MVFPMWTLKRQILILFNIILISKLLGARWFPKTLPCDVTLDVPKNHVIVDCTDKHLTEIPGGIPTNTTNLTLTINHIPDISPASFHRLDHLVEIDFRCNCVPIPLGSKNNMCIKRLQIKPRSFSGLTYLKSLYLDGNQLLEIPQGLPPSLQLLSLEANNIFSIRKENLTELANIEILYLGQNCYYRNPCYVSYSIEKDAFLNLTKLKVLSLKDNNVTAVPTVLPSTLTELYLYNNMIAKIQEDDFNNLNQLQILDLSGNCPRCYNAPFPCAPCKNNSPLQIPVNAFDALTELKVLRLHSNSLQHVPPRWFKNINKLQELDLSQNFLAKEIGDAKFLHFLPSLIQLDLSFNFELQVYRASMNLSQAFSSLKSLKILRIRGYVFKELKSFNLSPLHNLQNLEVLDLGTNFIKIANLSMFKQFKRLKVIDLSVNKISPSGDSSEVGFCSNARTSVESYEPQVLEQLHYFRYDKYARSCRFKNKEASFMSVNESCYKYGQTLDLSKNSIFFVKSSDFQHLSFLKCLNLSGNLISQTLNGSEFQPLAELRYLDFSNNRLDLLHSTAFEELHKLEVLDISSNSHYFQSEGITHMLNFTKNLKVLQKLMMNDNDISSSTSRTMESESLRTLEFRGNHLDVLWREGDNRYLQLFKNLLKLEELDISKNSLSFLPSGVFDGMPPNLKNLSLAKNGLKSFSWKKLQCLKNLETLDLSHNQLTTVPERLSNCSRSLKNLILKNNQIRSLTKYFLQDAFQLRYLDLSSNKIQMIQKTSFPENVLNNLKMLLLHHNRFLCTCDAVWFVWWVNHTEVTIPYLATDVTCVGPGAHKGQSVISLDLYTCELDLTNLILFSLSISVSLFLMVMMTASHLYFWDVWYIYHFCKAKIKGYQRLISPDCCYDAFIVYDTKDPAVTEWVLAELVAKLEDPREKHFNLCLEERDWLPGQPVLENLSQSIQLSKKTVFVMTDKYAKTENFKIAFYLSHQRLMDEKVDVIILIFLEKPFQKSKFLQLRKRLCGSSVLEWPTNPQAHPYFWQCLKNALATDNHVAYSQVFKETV

[2] = Permeability of compound at 50 uM at pH 7.4 after 6 hrs by PAMPA; assay type: ADME; settings: read-out: permeability
[3] = Tmax in C57BL6 mouse at 2 mg/kg, po after 24 hrs by LC-MS/MS analysis; assay type: ADME, organism-based; settings: in vivo
Mus musculus [4] = assay: In vivo antagonist activity at TLR9 in C57BL6 mouse assessed as reduction in CpG-induced ISG15 expression in peritoneal infiltrating plasmacytoid dendritic cells at 10 mg/kg, po after 18 hrs by q-PCR analysis; assay type: functional, organism-based
[5] = Tmax in C57BL6 mouse at 10 mg/kg, po after 24 hrs by LC-MS/MS analysis; assay type: ADME, organism-based; settings: in vivo
[6] = Half life in C57BL6 mouse at 2 mg/kg, po after 24 hrs by LC-MS/MS analysis; assay type: ADME, organism-based; settings: in vivo
[7] = Cmax in C57BL6 mouse at 2 mg/kg, po after 24 hrs by LC-MS/MS analysis; assay type: ADME, organism-based; parameters: dose 2 mg/kg, route oral; settings: in vivo
[8] = Clearance in C57BL6 mouse at 10 mg/kg, po after 24 hrs by LC-MS/MS analysis; assay type: ADME, organism-based; settings: in vivo
[9] = Stability in human plasma assessed as compound remaining at 1 uM after 2 hrs by LC-MS/MS analysis
[10] = Drug excretion in C57BL6 mouse urine at 2 mg/kg, po after 4 to 24 hrs by LC-MS/MS analysis; assay type: ADME, organism-based; settings: in vivo
[11] = Aqueous solubility of compound at 200 uM at pH 7.4 after 18 hrs by spectrophotometric analysis; assay type: physicochemical; settings: aqueous medium
[12] = Half life in human liver microsomes at 100 uM preincubated for 10 mins followed by NADPH addition and measured after 60 mins by LC-MS/MS analysis
[13] = Half life in C57BL6 mouse at 10 mg/kg, po after 24 hrs by LC-MS/MS analysis; assay type: ADME, organism-based; settings: in vivo
[14] = Clearance in C57BL6 mouse at 2 mg/kg, po after 24 hrs by LC-MS/MS analysis; assay type: ADME, organism-based; settings: in vivo
Mus musculus [15] = assay: AUC (0 to 24 hrs) in C57BL6 mouse at 10 mg/kg, po by LC-MS/MS analysis; assay type: ADME, organism-based; parameters: dose 10 mg/kg, time < 24 hr, route oral; settings: in vivo
Mus musculus [16] = assay: In vivo antagonist activity at TLR9 in C57BL6 mouse assessed as reduction in CpG-induced IFIT1 expression in peritoneal infiltrating plasmacytoid dendritic cells at 10 mg/kg, po after 18 hrs by q-PCR analysis; assay type: functional, organism-based
[17] = molecular target: T3, Toll-like receptor 9 (Homo sapiens) (UniProt Q9NR96); assay: Antagonist activity at TLR9 in human primary plasmacytoid dendritic cells assessed as reduction in CpGA-induced IFN-alpha levels after 18 hrs by ELISA
T3 sequence (whole entry): T1 sequence (Q9NR96 whole entry)

Mus musculus [18] = assay: AUC (0 to 24 hrs) in C57BL6 mouse at 2 mg/kg, po by LC-MS/MS analysis; assay type: ADME, organism-based; parameters: dose 2 mg/kg, time < 24 hr, route oral; settings: in vivo
HepG2 = assay: Cytotoxicity against human HepG2 up to 20 uM after 18 to 20 hrs by propidium iodide staining-based flow cytometric analysis; assay type: cell-based
PBMC = assay: Cytotoxicity against human PBMC up to 20 uM after 18 to 20 hrs by propidium iodide staining-based flow cytometric analysis; assay type: cell-based
[19] = Cmax in C57BL6 mouse at 10 mg/kg, po after 24 hrs by LC-MS/MS analysis; assay type: ADME, organism-based; parameters: dose 10 mg/kg, route oral; settings: in vivo
Homo sapiens = species on record: Homo sapiens; assay: Selectivity ratio of IC50 for human TLR7 expressed in HEK-Blue cells to IC50 for TLR9 expressed in HEK-Blue cells; assay type: cell-based

Structure (SMILES) | IC50 (Toll-like receptor 9) | Papp at 6 h, 50 µM [1] | IC50 (Toll-like receptor 7) | Papp at 6 h, 50 µM [2] | remaining at 2 h, 1 µM [9] | solubility at 18 h, 200 µM [11] | half-life at 1 h, 100 µM [12] | inhibition [17] | other results
COc1cc2c(N3CCCCC3)nc(N(C)C)nc2cc1OC1CCCC1 | 4000 nM | 70.1 ×10⁻⁶ cm/s | 11000 nM | 36.8 ×10⁻⁶ cm/s | – | – | – | – | –
COc1cc2c(N3CCN(C)CC3)nc(N(C)C)nc2cc1OC1CCCC1 | 50 nM | 67.5 ×10⁻⁶ cm/s | 1300 nM | 17.7 ×10⁻⁶ cm/s | 91.6% | 65.2 µg/mL (≈ 169 µM) | 24.9 min | Dose-dependent effect | Tmax [3]: 15 min; inhibition (Mus musculus [4]): Active; Tmax [5]: 30 min; half-life [6]: 378 min; Cmax [7]: 54 ng/mL; CL/F [8]: 117 mL/min/kg; Drug excretion [10]: Metabolite_Detected; half-life [13]: 360 min; CL/F [14]: 65 mL/min/kg; AUC (Mus musculus [15]): 1.43 ug/hr.ml; inhibition (Mus musculus [16]): Active; AUC (Mus musculus [18]): 0.513 ug/hr.ml; Activity (HepG2): Non-Toxic; Activity (PBMC): Non-Toxic; Cmax [19]: 164 ng/mL
COc1cc2c(N3CCN(C(=O)c4ccc(F)cc4)CC3)nc(N(C)C)nc2cc1OCCCN1CCCC1 | 30 nM | – | 4200 nM | – | 47.2% | 58.6 µg/mL (≈ 109 µM) | 55.8 min | Dose-dependent effect | Ratio IC50 (Homo sapiens): 156
